Experimental data: patent publication US20150258106A1, “METHODS FOR ACUTE AND LONG-TERM TREATMENT OF SUBSTANCE ABUSE” (DEMERX, INC., priority 2014, published 2015)
“Also recorded” adds a separate entry of the source.

Tests used:
Format in all cases: in vivo, human
[1] = tested on: healthy, drug-free male volunteers; assay: Pupillometry (pupillary miosis) in healthy volunteers
Experimental: (§1) Pulse oximetry and capnography data were collected continuously using a GE Carescape B650 monitoring system from 2 hours prior to dosing and until six hours after dosing, and thereafter at 12, 24, 48 and 72 hours post-dosing. […] Pupillary miosis was assessed by pupillometry.
(§2) Summary statistics (means, standard deviations, and coefficients of variation) were determined for each dose group for safety laboratory test data, ECG and pharmacokinetic parameters, and pharmacodynamic variables. Categorical variables were analysed using counts and percentages. Dose-proportionality of AUC and Cmax was assessed using linear regression. The effect of dose on pharmacodynamic parameter values over time was assessed using two-factor analysis of variance (ANOVA). Pairwise comparisons (with Tukey-Kramer adjustment) between each dose group to the placebo were conducted at each time point using the least squares estimates obtained from the ANOVA, using SAS Proc Mixed (SAS ver 6.0).

[2] = tested on: healthy, drug-free male volunteers; assay: Cold pressor test (analgesic effect) in healthy volunteers
Experimental: as §2
Analgesic effect was assessed based on duration of hand immersion in ice water and on visual analog scale (VAS) pain scores upon hand removal from the water bath.
(§3) Safety and tolerability of noribogaine were tested in the group of volunteers from Example 1. […] Safety evaluations included clinical monitoring, recording of adverse events (AEs), safety laboratory tests, vital signs, ECG telemetry from −2 h to 6 h after dosing, and 12-lead electrocardiograms (ECGs) up to 216 hours post-dosing.

[3] = tested on: healthy, drug-free male volunteers; assay: Safety and tolerability of noribogaine in healthy humans (adverse events, vital signs, ECG)
Experimental: as §1, §3

[4] = tested on: opioid-dependent participants; assay: Treatment emergent adverse events in opioid-dependent participants (randomized, placebo-controlled, double-blind trial)
Experimental: The efficacy of noribogaine in humans was evaluated in opioid-dependent participants in a randomized, placebo-controlled, double-blind trial. […] See U.S. application Ser. No. 14/214,157, filed Mar. 14, 2014 and Ser. No. 14/346,655, filed Mar. 21, 2014, which are incorporated herein by reference in their entireties.
Three cohorts of nine (9) subjects (6 administered noribogaine and 3 administered placebo in each cohort) were evaluated for tolerability, pharmacokinetics, and efficacy. Cohort 1 received a single dose of 60 mg noribogaine or placebo. Cohort 2 received a single dose of 120 mg noribogaine or placebo. Cohort 3 received a single dose of 180 mg noribogaine or placebo. […] Headaches were frequent in the placebo and 60 mg noribogaine treatment groups, but were attenuated in the 120 mg and 180 mg dose groups.

[5] = after adjusting for baseline differences, p>0.9
[6] = healthy volunteers, 3-60 mg single oral dose
[7] = opioid-dependent patients, 60, 120 or 180 mg single dose
[8] = opioid-dependent patients, single 60 mg dose, N = 6
[9] = opioid-dependent patients, single 120 mg dose, N = 6
[10] = opioid-dependent patients, single 180 mg dose, N = 6

CCC1CC2CC3c4[nH]c5ccc(O)cc5c4CCN(C2)C13 (stereo not drawn) [Noribogaine]
pupil diameter, each dose group compared with placebo by ANOVA [1, 5]: no statistically significant differences
pupillary constriction [1, 6]: no evidence of pupillary constriction
VAS pain scores upon hand removal, each dose group compared with placebo by ANOVA ([2]; after adjusting for baseline differences, p=0.17): no statistically significant differences
duration of hand immersion in ice water, each dose group compared with placebo by ANOVA [2, 5]: no statistically significant differences
analgesic effect in the cold pressor test [2, 6]: no analgesic effect
adverse events, Mild ([3]; healthy volunteers, 3 mg dose): Back pain; also recorded: Dizziness; also recorded: Epistaxis; also recorded: Headache
adverse events, Moderate ([3]; healthy volunteers, 3 mg dose): Headache
number of adverse events reported ([3]; healthy volunteers, 3 mg dose group): five adverse events were reported by two subjects
adverse events, Mild ([3]; healthy volunteers, 10 mg dose): Headache
number of adverse events reported ([3]; healthy volunteers, 10 mg dose group, single subject): one adverse event
adverse events, Mild ([3]; healthy volunteers, 30 mg dose): Headache
number of adverse events reported ([3]; healthy volunteers, 30 mg dose group, single subject): one adverse event
oximetry, capnography, respiratory rate ([3]; healthy volunteers, 3-60 mg): no changes in oximetry or capnography, or changes in respiratory rate
vital signs and safety laboratory tests ([3]; healthy volunteers, 3-60 mg): no changes in vital signs or safety laboratory tests of note
intensity of adverse events ([3]; healthy volunteers, all groups, all resolved prior to study completion): mild-moderate intensity
QTcF values ([3]; healthy volunteers, at any time): ≤ 500 ms
single increase in QTcF ([3]; one subject dosed with 10 mg, at 24 hours post-dosing): > 60 ms
Headaches ([4]; opioid-dependent patients, 60 mg treatment group): frequent
Headaches ([4]; opioid-dependent patients, 120 mg dose group): attenuated
Headaches ([4]; opioid-dependent patients, 180 mg dose group): attenuated
adverse effects of noribogaine observed [4, 7]: Few adverse effects
hallucinatory effects [4, 7]: no hallucinatory effects
Treatment Emergent Adverse Events: Catheter Site Infection [4, 8]: 0
Treatment Emergent Adverse Events: Catheter Site Pain [4, 8]: 0
Treatment Emergent Adverse Events: Catheter Site Related Reaction [4, 8]: 0
Treatment Emergent Adverse Events: Cellulitis [4, 8]: 0
Treatment Emergent Adverse Events: Diarrhoea [4, 8]: 0
Treatment Emergent Adverse Events: Dry Mouth [4, 8]: 0
Treatment Emergent Adverse Events: Ear and Labyrinth Disorders [4, 8]: 0
Treatment Emergent Adverse Events: Epistaxis [4, 8]: 0
Treatment Emergent Adverse Events: Euphoric Mood [4, 8]: 0
Treatment Emergent Adverse Events: General Disorders and Administration Site Conditions [4, 8]: 0
Treatment Emergent Adverse Events: Hyperaesthesia [4, 8]: 0
Treatment Emergent Adverse Events: Infections and Infestations [4, 8]: 0
Treatment Emergent Adverse Events: Limb Discomfort [4, 8]: 0
Treatment Emergent Adverse Events: Malaise [4, 8]: 0
Treatment Emergent Adverse Events: Nausea [4, 8]: 0
Treatment Emergent Adverse Events: Oropharyngeal Pain [4, 8]: 0
Treatment Emergent Adverse Events: Pseudoparalysis [4, 8]: 0
Treatment Emergent Adverse Events: Respiratory, Thoracic and Mediastinal Disorders [4, 8]: 0
Treatment Emergent Adverse Events: Rhinorrhoea [4, 8]: 0
Treatment Emergent Adverse Events: Skin Discomfort [4, 8]: 0
Treatment Emergent Adverse Events: Skin Irritation [4, 8]: 0
Treatment Emergent Adverse Events: Skin and Subcutaneous Tissue Disorders [4, 8]: 0
Treatment Emergent Adverse Events: Somnoience [4, 8]: 0
Treatment Emergent Adverse Events: Tinnitus [4, 8]: 0
Treatment Emergent Adverse Events: Tremor [4, 8]: 0
Treatment Emergent Adverse Events: Urinary Tract Infection [4, 8]: 0
Treatment Emergent Adverse Events: Vomiting [4, 8]: 0
Treatment Emergent Adverse Events: Back Pain [4, 9]: 0
Treatment Emergent Adverse Events: Catheter Site Infection [4, 9]: 0
Treatment Emergent Adverse Events: Catheter Site Related Reaction [4, 9]: 0
Treatment Emergent Adverse Events: Depressed Mood [4, 9]: 0
Treatment Emergent Adverse Events: Dry Eye [4, 9]: 0
Treatment Emergent Adverse Events: Dyspepsia [4, 9]: 0
Treatment Emergent Adverse Events: Euphoric Mood [4, 9]: 0
Treatment Emergent Adverse Events: Limb Discomfort [4, 9]: 0
Treatment Emergent Adverse Events: Malaise [4, 9]: 0
Treatment Emergent Adverse Events: Musculoskeletal and Connective Tissue Disorders [4, 9]: 0
Treatment Emergent Adverse Events: Psychiatric Disorders [4, 9]: 0
Treatment Emergent Adverse Events: Somnoience [4, 9]: 0
Treatment Emergent Adverse Events: Urinary Tract Infection [4, 9]: 0
Treatment Emergent Adverse Events: Catheter Site Infection [4, 10]: 0
Treatment Emergent Adverse Events: Catheter Site Pain [4, 10]: 0
Treatment Emergent Adverse Events: Depressed Mood [4, 10]: 0
Treatment Emergent Adverse Events: Diarrhoea [4, 10]: 0
Treatment Emergent Adverse Events: Dry Eye [4, 10]: 0
Treatment Emergent Adverse Events: Dyspepsia [4, 10]: 0
Treatment Emergent Adverse Events: Ear and Labyrinth Disorders [4, 10]: 0
Treatment Emergent Adverse Events: Epistaxis [4, 10]: 0
Treatment Emergent Adverse Events: Euphoric Mood [4, 10]: 0
Treatment Emergent Adverse Events: Hyperaesthesia [4, 10]: 0
Treatment Emergent Adverse Events: Malaise [4, 10]: 0
Treatment Emergent Adverse Events: Oropharyngeal Pain [4, 10]: 0
Treatment Emergent Adverse Events: Pseudoparalysis [4, 10]: 0
Treatment Emergent Adverse Events: Psychiatric Disorders [4, 10]: 0
Treatment Emergent Adverse Events: Respiratory, Thoracic and Mediastinal Disorders [4, 10]: 0
Treatment Emergent Adverse Events: Rhinorrhoea [4, 10]: 0
Treatment Emergent Adverse Events: Skin Discomfort [4, 10]: 0
Treatment Emergent Adverse Events: Skin Irritation [4, 10]: 0
Treatment Emergent Adverse Events: Skin and Subcutaneous Tissue Disorders [4, 10]: 0
Treatment Emergent Adverse Events: Somnoience [4, 10]: 0
Treatment Emergent Adverse Events: Tinnitus [4, 10]: 0
Treatment Emergent Adverse Events: Tremor [4, 10]: 0
